The values below come from patent US10508088B2, “Methods using HDAC11 inhibitors” (FORMA Therapeutics, Inc., priority 2016, dated 2019).

Holding throughout (format): cell-based
The test system of one test is HEL 92.1.7 cells. Briefly: Cell proliferation assay (CCK8). As to conditions: HEL 92.1.7, 48 h. How it is done:
(§1) This example describes inhibition of in vitro cell proliferation with exemplary HDAC11 inhibitors. The effects of selective HDAC11 inhibitors on cell proliferation were measured in cell lines containing the MPN-associated mutations MPL W515L (Ba/F3 MPL W515L) and JAK2 V617F (Ba/F3 JAK2 V617F, HEL 92.1.7, SET-2). HEL 92.1.7 and SET-2 cells were purchased from the ATCC and DSMZ, respectively. Ba/F3 cells overexpressing either MPLW515L or JAK2V617F, which were cytokine independent, were generated by transforming Ba/F3 cells with retroviruses overexpressing either MPL W515L or JAK2V617F. For survival assays, cells were seeded in 96-well plates at the density of 0.1 million/ml with addition of indicated compounds and incubated at 37° C. for 48 h. CCK8 solution (Dojindo, Rockville, Md.) was added and absorbance at 450 nm was measured after 3 hours of incubation. Readings were normalized to dimethylsulfoxide (DMSO)-treated wells.

A further test concerns SET-2 cells. Description: Cell proliferation assay (CCK8). Particulars: Ruxolitinib-resistant SET-2. How it is done: as §1
In the next test the test system is A549 cells. Briefly: Cell migration scratch assay. How it is done:
The effects of HDAC11 inhibition on cell migration were determined using a scratch assay. A549 cells (120,000-150,000 cells/2 ml/well) were grown in 6-well tissue culture plates (BD Biosciences). A scratch was made using a sterile 2 μl pipette tip in each well. The 10% FBS containing medium was added to the wells after a wash with DPBS. To assess the effect of the HDAC11 inhibitors on cell migration, the inhibitors were added in the medium at appropriate concentrations. The cells were further incubated at 37° C. The images were taken on Day 0 and after every 24 hours using EVOS FL microscope system and EVOS software (Life Technologies Inc) and the cell migration was compared to the Day 0 of treatment.

The test system of a further test is H1650 SP cells. Description: Tube formation assay with stem-like side population NSCLC cells. Particulars: H1650 SP cells on Matrigel. How it is done:
The angiogenic tubule assay was performed with the sorted side population cells to analyze vascular mimicry. The H1650 side population cells were sorted as mentioned above and they were further grown on Matrigel (BD Biosciences) to form angiogenic tubule-like structures. 100 μl of thawed Matrigel was layered on the wells of 96-well tissue culture plates and allowed to polymerize at 37° C. for 30 min. Sorted H1650 SP cells were layered (12000 cells/100 μl of Matrigel) on the polymerized matrigel and incubated overnight at 37° C. Tubule formation was assessed under bright field using EVOS FL microscope system and images were acquired with EVOS software (Life Technologies Inc., USA). For the treatment with HDAC11 inhibitors, appropriate concentrations of the compounds were added to the cells when they were seeded on Matrigel for the tubule formation assay.

Test [1] concerns H1650 cells co-cultured with primary CAFs. Briefly: Co-culture assay with cancer cells and cancer associated fibroblasts. Particulars: 1:1 co-culture. How it is done: (§2) The effects of selective HDAC11 inhibition on cancer cells and cancer associated fibroblasts (CAFs) were determined in a co-culture assay. The cells were first trypsinized and collected in serum containing medium and were further incubated in same media at 37° C. for 15-20 min for recovery. The cells were resuspended in serum free media at 1×10^6 cells/ml density and stained with 10 uM of cytotracker green (Cancer associated fibroblasts) or cytotracker red dye (H1650 cells) (Life Technologies Inc) at 37° C. for 90 min. The stained cells were washed twice with serum free medium to remove excess dye at 1500 rpm for 5 min. The cytotracker green stained CAFs were mixed with cytotracker red stained H1650 cells in 1:1 ratio and grown in 96-well tissue culture plate overnight. The HDAC11 inhibitors were then added to the mixed adhered cells (CAFs+H1650) at appropriate concentrations. The images were taken on Day 0 and after every 24 hours using EVOS FL microscope system and EVOS software (Life Technologies Inc).

Test [2] deals with primary CAFs from human lung cancer. The description is as above. Particulars: 1:1 co-culture with H1650. How it is done: as §2

Molecules are shown by their SMILES.

`O=C(NO)c1cccc(Nc2nc3cc(Cl)c(Cl)cc3o2)c1` [HDTK010, 3-((5,6-dichlorobenzo[d]oxazol-2-yl)amino)-N-hydroxybenzamide]: the “growth of the HEL 92.1.7 cell line” value in the test with HEL 92.1.7 cells is recorded as “inhibited the growth”. Moreover, the “growth of SET-2 cell line generated to be Ruxolitinib-resistant” value with SET-2 cells is reported as “inhibited the growth”.
On to `O=C(NO)c1cccc2c1C[C@]1(CCN(Cc3ccc(Cl)c(C(F)(F)F)c3)C1=O)C2` [HDTK054, (S)-1′-(4-chloro-3-(trifluoromethyl)benzyl)-N-hydroxy-2′-oxo-1,3-dihydrospiro[indene-2,3′-pyrrolidine]-4-carboxamide], for which the cell migration result in the test with A549 cells is reported as “impaired”. In addition, the tubule formation result with H1650 SP cells was “inhibited tubule formation”. The “growth of H1650 cells co-cultured with primary CAFs” value in test [1] is listed as “inhibit the growth”. Also, in test [2], the “effects on CAFs” value was “minimal effects”.
